The text below walks through data of patent publication US11680060B2, “Bicycloheptane pyrrolidine orexin receptor agonists” (Merck Sharp & Dohme LLC, priority 2020, dated 2023).

The target in this test is human OX2R (Homo sapiens (Human), UniProt O43614). The test is described as follows: IPOne (IP-1) assay in CHO cells expressing human OX2R. Format: cell-based. The following applies: for Emax: CHO, read-out: Emax (%); for Emax / Emax (%): percentage of mean max effect of a reference compound at 1 uM (100% activity by comparison to Orexin A), human OX2R; for IC50: CHO cells expressing human OX2R, IP-One detection, 2 hours incubation, EC50 = inflection point of four parameter logistic fit, read-out: hOX2R_IP_IC50. Put shortly:
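CHO cells stably expressing human OX2R were stimulated with compound (10-point ½-log dilutions) for 2 h at 37 °C. IP-1 accumulation was read by HTRF (IP-One, 665/620 nm). EC50 from a four-parameter fit; % effect relative to 1 μM reference agonist control.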

Chain of human OX2R (O43614 whole entry): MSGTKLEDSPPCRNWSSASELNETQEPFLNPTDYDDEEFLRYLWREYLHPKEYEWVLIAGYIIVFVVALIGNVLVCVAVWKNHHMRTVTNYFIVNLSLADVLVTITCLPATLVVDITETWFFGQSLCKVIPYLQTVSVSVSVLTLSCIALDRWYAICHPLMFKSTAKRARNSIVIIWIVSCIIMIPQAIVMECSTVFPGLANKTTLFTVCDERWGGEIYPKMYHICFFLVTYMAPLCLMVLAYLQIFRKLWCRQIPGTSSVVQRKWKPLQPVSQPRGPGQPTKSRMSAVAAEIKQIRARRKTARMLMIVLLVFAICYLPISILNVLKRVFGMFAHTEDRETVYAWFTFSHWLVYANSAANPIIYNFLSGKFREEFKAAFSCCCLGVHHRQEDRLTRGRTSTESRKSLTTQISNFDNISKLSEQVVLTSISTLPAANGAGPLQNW

The term Emax denotes the greatest response seen or fitted, relative to the assay's reference. Take `CCC(C)S(=O)(=O)N[C@H]1C[C@@H](C)N(C(=O)OC)[C@H]1CO[C@H]1CC[C@@]2(c3ncc(F)cn3)C[C@H]2C1` (stereo partly drawn) [Example 41, methyl (2R,3S,5R)-2-((((1S,3S,6R)-6-(5-fluoropyrimidin-2-yl)bicyclo[4.1.0]heptan-3-yl)oxy)methyl)-5-methyl-3-((1-methylpropyl)sulfonamido)pyrrolidine-1-carboxylate]: the Emax is 104%. For the molecule `COC(=O)N1[C@H](C)C[C@H](NS(=O)(=O)C(F)(F)F)[C@@H]1CO[C@H]1CC[C@@]2(c3ncc(F)cn3)C[C@H]2C1` [Example 31, methyl (2R,3S,5R)-2-((((1S,3S,6R)-6-(5-fluoropyrimidin-2-yl)bicyclo[4.1.0]heptan-3-yl)oxy)methyl)-5-methyl-3-((trifluoromethyl)sulfonamido)pyrrolidine-1-carboxylate], the Emax turned out to be 101%. As for `COC(=O)N1[C@H](C)C[C@H](NS(=O)(=O)C(F)F)[C@@H]1CO[C@H]1CC[C@@]2(c3ncc(Cl)cn3)C[C@H]2C1` [Example 78, methyl (2R,3S,5R)-2-((((1S,3S,6R)-6-(5-chloropyrimidin-2-yl)bicyclo[4.1.0]heptan-3-yl)oxy)methyl)-3-((difluoromethyl)sulfonamido)-5-methylpyrrolidine-1-carboxylate], the Emax is 101%. On to `COC(=O)N1[C@H](C)C[C@H](NS(=O)(=O)N(C)C)[C@@H]1COC1CCC2(c3ncccn3)CC2C1` (stereo partly drawn) [Example 6, methyl (2R,3S,5R)-3-((N,N-dimethylsulfamoyl)amino)-5-methyl-2-(((6-(pyrimidin-2-yl)bicyclo[4.1.0]heptan-3-yl)oxy)methyl)pyrrolidine-1-carboxylate], for which the Emax was found to be 101%. With `C[C@@H]1C[C@H](NS(C)(=O)=O)[C@H](CO[C@H]2CC[C@@]3(c4ncc(F)cn4)C[C@H]3C2)N1C(=O)OCC(F)F` [Example 66, 2,2-difluoroethyl (2R,3S,5R)-2-((((1S,3S,6R)-6-(5-fluoropyrimidin-2-yl)bicyclo[4.1.0]heptan-3-yl)oxy)methyl)-5-methyl-3-(methylsulfonamido)pyrrolidine-1-carboxylate], the Emax came to 101%.

`COC(=O)N1[C@H](C)C[C@H](NS(C)(=O)=O)[C@@H]1COC1CCC2(c3ncc(F)c(C)n3)CC2C1` (stereo partly drawn) [Example 77, methyl (2R,3S,5R)-2-(((6-(5-fluoro-4-methylpyrimidin-2-yl)bicyclo[4.1.0]heptan-3-yl)oxy)methyl)-5-methyl-3-(methylsulfonamido)pyrrolidine-1-carboxylate]: the Emax came out at 74.5%.

On to `COC(=O)N1[C@H](C)C[C@H](NS(=O)(=O)CCl)[C@@H]1CO[C@H]1CC[C@@]2(c3ncc(F)cn3)C[C@H]2C1` [Example 37, methyl (2R,3S,5R)-3-((chloromethyl)sulfonamido)-2-((((1S,3S,6R)-6-(5-fluoropyrimidin-2-yl)bicyclo[4.1.0]heptan-3-yl)oxy)methyl)-5-methylpyrrolidine-1-carboxylate], for which the Emax was 103%. Regarding `COC(=O)N1[C@H](C)C[C@H](NS(C)(=O)=O)[C@@H]1COC1CCC2(c3ncc(Cl)cn3)CC2C1` (stereo partly drawn) [Example 140, methyl (2R,3S,5R)-2-(((6-(5-chloropyrimidin-2-yl)bicyclo[4.1.0]heptan-3-yl)oxy)methyl)-5-methyl-3-(methylsulfonamido)pyrrolidine-1-carboxylate], the Emax came out at 103%.

Consider `COC(=O)N1[C@H](C)C[C@H](NS(C)(=O)=O)[C@@H]1COC1CCC2(c3ncccn3)CC2C1` (single isomer, unassigned) [Example 17], for which the IC50 was 2260 nM and the “Emax (%)” value is listed as 89.7%. Consider `COC(=O)N1[C@H](C)C[C@H](NS(=O)(=O)C2CC2)[C@@H]1CO[C@H]1CC[C@@]2(c3ncc(F)cn3)C[C@H]2C1` [Example 42, methyl (2R,3S,5R)-3-(cyclopropanesulfonamido)-2-((((1S,3S,6R)-6-(5-fluoropyrimidin-2-yl)bicyclo[4.1.0]heptan-3-yl)oxy)methyl)-5-methylpyrrolidine-1-carboxylate], for which the Emax was determined as 103%. In the case of `COC(=O)N1[C@H](C)C[C@H](NS(C)(=O)=O)[C@@H]1COC1CCC2(c3ncccn3)CC2C1` (single isomer, unassigned) [Example 16], the IC50 worked out at 16.4 nM and the “Emax (%)” value is on record as 102.2%.

Take `COC(=O)N1[C@H](C)C[C@H](NS(C)(=O)=O)[C@@H]1CO[C@H]1CC[C@@]2(c3ncccn3)C[C@H]2C1` (single isomer, unassigned) [Example 19]: the “Emax (%)” value amounted to 100.9%.

Consider `COC(=O)N1[C@H](C)C[C@H](NS(=O)(=O)C(F)F)[C@@H]1CO[C@@H]1CC[C@]2(c3ncccn3)C[C@@H]2C1` [Example 69, methyl (2R,3S,5R)-3-((difluoromethyl)sulfonamido)-5-methyl-2-((((1R,3R,6S)-6-(pyrimidin-2-yl)bicyclo[4.1.0]heptan-3-yl)oxy)methyl)pyrrolidine-1-carboxylate], for which the Emax was 101%.

Turning to `COC(=O)N1[C@H](C)C[C@H](NS(=O)(=O)N(C)C)[C@@H]1CO[C@H]1CC[C@@]2(c3ncc(F)cn3)C[C@H]2C1` [Example 166, methyl (2R,3S,5R)-3-((N,N-dimethylsulfamoyl)amino)-2-((((1S,3S,6R)-6-(5-fluoropyrimidin-2-yl)bicyclo[4.1.0]heptan-3-yl)oxy)methyl)-5-methylpyrrolidine-1-carboxylate], the IC50 was 0.41 nM and the Emax is 99.4%. In the same order, the values of `COC(=O)N1[C@H](C)C[C@H](NS(=O)(=O)CF)[C@@H]1CO[C@H]1CC[C@@]2(c3ncc(Cl)cn3)C[C@H]2C1` [Example 79, methyl (2R,3S,5R)-2-((((1S,3S,6R)-6-(5-chloropyrimidin-2-yl)bicyclo[4.1.0]heptan-3-yl)oxy)methyl)-3-((fluoromethyl)sulfonamido)-5-methylpyrrolidine-1-carboxylate] are 0.86 nM and 103%. The like results for `COC(=O)N1[C@H](C)C[C@H](NS(=O)(=O)N(C)C)[C@@H]1COC1CCC2(c3ncccn3)CC2C1` (single isomer, unassigned) [Example 186] were, in that order, 142 nM and 99.5%.

Regarding `CC(C)OC(=O)N1[C@H](C)C[C@H](NS(=O)(=O)N(C)C)[C@@H]1CO[C@@H]1CC[C@]2(c3ncccn3)C[C@@H]2C1` [Example 170, isopropyl (2R,3S,5R)-3-((N,N-dimethylsulfamoyl)amino)-5-methyl-2-((((1R,3R,6S)-6-(pyrimidin-2-yl)bicyclo[4.1.0]heptan-3-yl)oxy)methyl)pyrrolidine-1-carboxylate], the Emax was found to be 99.5%. For the molecule `COC(=O)N1[C@H](C)C[C@H](NS(C)(=O)=O)[C@@H]1COC1CC[C@@]2(c3nccs3)C[C@H]2C1` (single isomer, unassigned) [Example 146], the IC50 was 50.7 nM and the Emax was 101%. `CC(C)OC(=O)N1[C@H](C)C[C@H](NS(=O)(=O)N(C)C)[C@@H]1CO[C@@H]1CC[C@]2(c3ncc(F)cn3)C[C@@H]2C1` (single isomer, unassigned) [Example 160]: the IC50 was determined as 1.6 nM and the Emax came out at 102%. As to `CC(C)OC(=O)N1[C@H](C)C[C@H](NS(=O)(=O)N(C)C)[C@@H]1CO[C@H]1CC[C@@]2(c3ncccn3)C[C@H]2C1` [Example 171, isopropyl (2R,3S,5R)-3-((N,N-dimethylsulfamoyl)amino)-5-methyl-2-((((1S,3S,6R)-6-(pyrimidin-2-yl)bicyclo[4.1.0]heptan-3-yl)oxy)methyl)pyrrolidine-1-carboxylate], the Emax stood at 101%. For the molecule `COC(=O)N1[C@H](C)C[C@H](NS(C)(=O)=O)[C@@H]1COC1CCC2(c3ccccc3)CC2C1` (single isomer, unassigned) [Example 2], the IC50 is 176 nM and the “Emax (%)” value was 100.5%.

Regarding `C[C@@H]1C[C@H](NS(C)(=O)=O)[C@H](CO[C@H]2CC[C@@]3(c4ncc(F)cn4)C[C@H]3C2)N1C(=O)OCC1(C)CC1(F)F` (stereo partly drawn) [Example 57, (2,2-difluoro-1-methylcyclopropyl)methyl (2R,3S,5R)-2-((((1S,3S,6R)-6-(5-fluoropyrimidin-2-yl)bicyclo[4.1.0]heptan-3-yl)oxy)methyl)-5-methyl-3-(methylsulfonamido)pyrrolidine-1-carboxylate], the Emax came to 102%. With `CC(C)OC(=O)N1CCC[C@H](NS(=O)(=O)CF)[C@@H]1CO[C@H]1CC[C@@]2(c3ncc(F)cn3)C[C@H]2C1` (single isomer, unassigned) [Example 124], the IC50 was determined as 0.37 nM and the Emax was 99.3%. Consider `CCS(=O)(=O)N[C@H]1[C@H]2CCC[C@H]2N(C(=O)OC)[C@H]1COC1CCC2(c3ncc(F)cn3)CC2C1` (stereo partly drawn) [Example 129, methyl (2R,3S,3aS,6aR)-3-(ethylsulfonamido)-2-(((6-(5-fluoropyrimidin-2-yl)bicyclo[4.1.0]heptan-3-yl)oxy)methyl)hexahydrocyclopenta[b]pyrrole-1(2H)-carboxylate], for which the Emax was found to be 101%. Regarding `CC(C)OC(=O)N1[C@H](C)C[C@H](NS(=O)(=O)C(F)F)[C@@H]1CO[C@@H]1CC[C@]2(c3ncc(F)cn3)C[C@@H]2C1` (single isomer, unassigned) [Example 91], the IC50 is 3.3 nM and the Emax was 102%. Consider `COC(=O)N1[C@H](C)C[C@H](NS(C)(=O)=O)[C@@H]1COC1CCC2(c3ncc(OC(F)F)c(C)n3)CC2C1` (stereo partly drawn) [Example 75, methyl (2R,3S,5R)-2-(((6-(5-(difluoromethoxy)-4-methylpyrimidin-2-yl)bicyclo[4.1.0]heptan-3-yl)oxy)methyl)-5-methyl-3-(methylsulfonamido)pyrrolidine-1-carboxylate], for which the Emax was determined as 89.5%. On to `CC(C)OC(=O)N1[C@H](C)C[C@H](NS(=O)(=O)C(F)F)[C@@H]1CO[C@H]1CC[C@@]2(c3ncc(Cl)cn3)C[C@H]2C1` (single isomer, unassigned) [Example 81], for which the IC50 came to 4.5 nM and the Emax stood at 100%.
